Here are results for 3 molecules from PMC1972348, “Pharmacokinetics and cytotoxicity of RSU-1069 in subcutaneous 9L tumours under oxic and hypoxic conditions” (British Journal of Cancer, 1991).

The conditions of series [1]: ref Horwich et al., 1986, cited from earlier work.
The text on series [2]: (§1) Br 1 acr(91,6,4448?McilnPesLd,19 Pharmacokinetics and cytotoxicity of RSU-1069 in subcutaneous 9L tumours under oxic and hypoxic conditions K-H. Wong',*, C.J. Koch2, C. A. Wallen' & K.T. Wheeler' 'Experimental Radiation Oncology, Department of Radiology, Bowman Gray School of Medicine, Winston-Salem, North Carolina 27103; and 2Department of Radiation Oncology, University of Pennsylvania, Philadelphia, Pennsylvania 19104, USA. Summary The acute toxicity, pharmacokinetics and hypoxic cytotoxicity of RSU-1069 were investigated using the subcutaneous (sc) rat 9L tumour model. The pharmacokinetics were studied after i.p. injection of RSU-1069 (20mgkg-' or 100mgkg-'). […] The 2-nitroimidazoles, originally designed as electron affinic radiosensitisers, have been reported to selectively kill hypoxic cells (Adams et al., 1980). This hypoxic cytotoxicity appears to be related to the anaerobic bioreductive metabolism of the drugs that releases reactive cytotoxic metabolites (Clark et al., 1980; Brown, 1982). By adding an alkylating group to the side chain of a 2-nitroimidazole, Adams et al. (1984a,b) postulated that a more efficient chemopotentiator and killer of hypoxic cells could be made without the compound losing its ability to sensitise hypoxic cells to ionising radiation. RSU-1069 was one of the compounds synthesised to achieve this goal. RSU-1069 has an aziridine group attached via a side chain to a 2-nitroimidazole. […] Although the ability to kill cells in vivo has been studied (Adams et al., 1984a,b; Chaplin et al., 1986; Olive et al., 1987; Cole et al., 1989; Siemann, 1989) the presence of both oxic and hypoxic cells in these tumours has made it difficult to determine if the relative efficiency of RSU-1069 for killing oxic and hypoxic cells in vivo is similar to that reported in vitro. In this report, we used the subcutaneous (sc) 9L tumour model to study the relative ability of RSU-1069 to kill oxic and hypoxic tumours cells in vivo.

In series [3] the test system is other in vitro cells. Details: method as in Stratford et al., 1986. The settings on record: ref Stratford et al., 1986; cited from earlier work.
Series [4] has as its system 9L cells. Briefly: In vitro colony formation of 9L cells treated at defined oxygen concentrations. The class given is cell-based, rat. From the text:
Br 1 acr(91,6,4448?McilnPesLd,19 Pharmacokinetics and cytotoxicity of RSU-1069 in subcutaneous 9L tumours under oxic and hypoxic conditions K-H. Wong',*, C.J. Koch2, C. A. Wallen' & K.T. Wheeler' 'Experimental Radiation Oncology, Department of Radiology, Bowman Gray School of Medicine, Winston-Salem, North Carolina 27103; and 2Department of Radiation Oncology, University of Pennsylvania, Philadelphia, Pennsylvania 19104, USA. Summary The acute toxicity, pharmacokinetics and hypoxic cytotoxicity of RSU-1069 were investigated using the subcutaneous (sc) rat 9L tumour model. The pharmacokinetics were studied after i.p. injection of RSU-1069 (20mgkg-' or 100mgkg-'). […] The 2-nitroimidazoles, originally designed as electron affinic radiosensitisers, have been reported to selectively kill hypoxic cells (Adams et al., 1980). This hypoxic cytotoxicity appears to be related to the anaerobic bioreductive metabolism of the drugs that releases reactive cytotoxic metabolites (Clark et al., 1980; Brown, 1982). By adding an alkylating group to the side chain of a 2-nitroimidazole, Adams et al. (1984a,b) postulated that a more efficient chemopotentiator and killer of hypoxic cells could be made without the compound losing its ability to sensitise hypoxic cells to ionising radiation. RSU-1069 was one of the compounds synthesised to achieve this goal. […]

In series [5] the test system is KHT and RIF tumours. Details: method as in Bremner et al. (1990). The settings on record: tumours clamped 60 min after 80 mg kg-1, ref Bremner et al. (1990); cited from earlier work.
The conditions of series [6]: KHT fibrosarcoma, ref Walton & Workman, 1988; cited from earlier work.
For series [7] the following is noted: B16 and HX 118 melanomas, ref Deacon et al., 1986; Walling et al., 1989; cited from earlier work.
The conditions of series [8]: mice, i.p. doses of 50 and 100 mg kg-1, ref Walton & Workman (1988); cited from earlier work.
In series [9] the test system is sc 9L tumour cells. More on the design: AUC30: unit not given beside the values.
Text: as §1

The subject of series [10] is hypoxic cells. Details: method as in Adams et al., 1984a. The settings on record: estimated at plasma level of 2-4 µg ml-1, ref Adams et al., 1984a; cited from earlier work.
In series [11] the test system is sc 9L tumour cells. Details: method as in Wong et al., 1989; 1990. As to conditions: Table I, clamped sc 9L tumours, ref Wong et al., 1989; 1990; cited from earlier work.
Details of series [12]: method as in Wong et al., 1989; 1990. The settings on record: sc 9L tumours, ref Wong et al., 1989; 1990; cited from earlier work.
Setting [13] is: 20 mg kg-1 i.p., unclamped tumours.
The mark [14] stands for this setting: 100 mg kg-1 i.p., unclamped tumours.
[15] abbreviates: both doses (20 and 100 mg kg-1).

Each structure is given as a SMILES string. Like-named read-outs stand apart in the source and are kept apart here.

Consider `O=[N+]([O-])c1nccn1CC(O)CN1CC1` (stereo not shown) [RSU-1069], for which, in [1] (clinical trial, after a 70 mg kg-1 dose (so in the source)), the peak plasma level was 2 to 4 µg/mL. For the same molecule, the “dose limited by nongenotoxic side-effects such as emesis” value in [1] (phase I clinical trial) is given as “less than 70 mg m-2”. In addition, the maximum tumour/plasma ratio result in series [2] (20 mg kg-1, in 60 min) is recorded as “six”. The “plasma elimination t1/2” value came out at 47.8 ± 6.3 min in [2] (20 mg kg-1 i.p.) and 39.3 ± 11.1 min in series [2] (100 mg kg-1 i.p., tumour unclamped). Also, the “time to peak plasma concentration” value in series [2] (20 mg kg-1 i.p.) is given as “about 10 min”; in series [2] (100 mg kg-1 i.p.), “approximately 25 min”. Further, the “time to peak tumour concentration” value in series [2] (20 mg kg-1 i.p.) turned out to be 10 min; in [2] (setting [14]), 30 min. The peak plasma concentration is on record as 3 micrograms ml-1 in series [2] (20 mg kg-1 i.p., rat) and 40 micrograms ml-1 in series [2] (100 mg kg-1 i.p., rat). Also, the peak tumour concentration in series [2] (setting [13]) is 4 micrograms g-1; in series [2] (setting [14]), 50 micrograms g-1. For the same molecule, the “tumour elimination t1/2” value in series [2] (setting [13]) was determined as 41.9 ± 6.1 min; in series [2] (100 mg kg-1 i.p., tumour clamped 30 min after administration), 10.9 ± 1.4 min; in [2] (setting [14]), 36.1 ± 9.6 min. Also, in series [2] (100 mg kg-1), the “time to return to unclamped tumour concentration after release of the clamp” value was “about 60 min”. In addition, the “tumour/plasma ratio in clamped tumours” value in [2] (100 mg kg-1, about 90 min after clamping) is recorded as 0.1. In addition, the “drug concentration in clamped tumours” value in [2] (100 mg kg-1, beyond 120 min after clamping) is “undetectable”. In addition, the peak tumour/plasma ratio entry in [2] (100 mg kg-1, unclamped, in about 45 min) is given as “exceeded four”. Also, the “constant unclamped tumour/plasma ratio after the maximum” value in [2] (setting [15]) is “about 2”. For the same molecule, in series [2] (setting [15]), the “maximum unclamped tumour/plasma ratio” value is listed as 4-6. In addition, the “elimination from clamped sc 9L tumours faster than MISO or SR-2508” value in series [2] (rat, in vivo) is on record as “four”. The “peak plasma concentration at 100 mg kg-1 relative to 20 mg kg-1” value in series [2] (rat, in vivo) is recorded as “about 13 times”. In series [2] (rat, in vivo), the “peak tumour concentration at 100 mg kg-1 relative to 20 mg kg-1” value is on record as “about 13 times”. In addition, the SER in vitro in series [3] was no more than 100; in series [4] (2.1% O2 vs less than 7.5 x 10(-3)% O2), “approximately 50”; in [4] (21% O2 vs less than 7.5 x 10(-3)% O2), “approximately 100”. In series [5], the “increase in time for tumours to reach four times their treatment size” value is recorded as 3-4 fold. Also, the tumour/plasma ratio was 0.2-0.4 in series [6] and 3.7-4 in series [7]. The “difference in the volume of distribution” value in [8] is 2 fold. Besides, in series [8], the “increase in the elimination t1/2” value is on record as 37%. The cell survival result in series [9] (20 mg kg-1, clamped tumours) is on record as “approximately 25%”; in [9] (20 mg kg-1, unclamped tumours), roughly 100%. Moreover, the “cell-kill kinetics as a function of clamping time” value in [9] (50 mg kg-1, clamped for various times) is “little additional cell kill was achieved after 40 min of clamping”. Also, the surviving fraction is listed as roughly 0.001 in series [9] (50 mg kg-1, hypoxic (clamped 2 h)) and “about 0.6” in series [9] (50 mg kg-1, oxic (unclamped)). Moreover, in series [9] (rat, in vivo), the AUC30 came out at 0.15. The “efficiency for killing hypoxic sc 9L tumour cells in situ relative to misonidazole or SR2508” value in series [9] (rat, in vivo, sc) is listed as 300-1000 fold. Besides, the “sensitiser enhancement ratio (SER), hypoxic vs oxic sc 9L cells in vivo” value in series [9] (rat, in vivo, sc) was 4.8. Besides, in series [10], the radiosensitising enhancement ratio was 1.2.
Regarding `COCC(O)Cn1ccnc1[N+](=O)[O-]` (stereo not shown) [MISO, misonidazole], the AUC30 in series [11] is 877 µg·h/mL. The “time to return to unclamped tumour level after release of the clamp” value in series [12] is “about 45 min”.
As for `O=C(Cn1ccnc1[N+](=O)[O-])NCCO` [SR-2508], the AUC30 in series [11] is 748 µg·h/mL. The “time to return to unclamped tumour level after release of the clamp” value in series [12] is listed as “about 90 min”.
